Experimental data from patent publication EP3495372B1 (priority 2017, dated 2019).
Converted amounts (≈) assume the structure as drawn.

Assays:
[1] = tested on: differentiated SH-SY5Y human neuroblastoma cells; experiment: MTT assay, neuroprotective effects against Aβ1-42 cytotoxicity; assay type: cell-based; conditions: 24 h, read-out: increase in the cell viability (MTT assay)
Procedure: Cell cultures and differentiation: SH-SY5Y cell line were growth in DMEM:F12 (1:1) media including 10% FBS and 1% penicillin/streptomycin at 37 °C and 5% CO2 until cells reach confluence. Then, cells harvested via using trypsin/EDTA solution and transferred to 48 well plates. For differentiation, media were changed to supplemented media with 10 µg/mL retinoic acid and incubated for 5 days. Finally, media were changed into serum free media supplementing with both 10 µM retinoic acid and 25 ng/mL BDNF. Differentiated cells were determined under invert microscope and the cells were used within 10 days (Encinas M, Iglesias M, Liu Y, Wang H, Muhaisen A, Ceña V, Gallego C, Comella JX. Sequential treatment of SH-SY5Y cells with retinoic acid and brain-derived neurotrophic factor gives rise to fully differentiated, neurotrophic factor-dependent, human neuron-like cells. J. Neurochem. 2002; 75:991-1003 e Cheung YT, Lau WKW, Yu MS, Lai CSW, Yeung SC, So KF, Chang RCC. Effects of all-trans-retinoic acid on human SH-SY5Y neuroblastoma as in vitro model in neurotoxicity research. Neurotoxicol. 2009; 30:127-135).
(§1) Control cells (n = 6) were cultured under normal conditions. 1% Triton X, ascorbic acid (10 µM) and hydrogen peroxide (H2O2, 25 µM) were used as positive controls for cell viability, TAC and TOS analysis, respectively.
The cultures without BLA, MEM, or LA were studied as negative control group. 1% Triton-X was added to the culture media to provide negative control group. MTT reduction and LDH release observed after 24 h of Aβ1-42-exposure at 20 µM.

[2] = tested on: differentiated SH-SY5Y cells; experiment: TAC and TOS analysis in cellular model of Alzheimer's disease; assay type: cell-based, human; conditions: co-treatment with Aβ1-42
Procedure: TAC and TOS analysis: the automated TAC and TOS assays were carried out by commercially available kits (Rel Assay^(R) Diagnostics, Gaziantep, Turkey) on samples from the cultures.
as §1
Figure 5 and 6 show the effects of BLA and MEM treatments on TAC and TOS levels in cellular model of Alzheimer's disease, respectively.

[3] = tested on: cultured human blood cells; experiment: Nucleic acid oxidation, 8-hydroxy-2'-deoxyguanosine assay; assay type: cell-based
Source text: All volunteers have signed informed consent.
Nucleic acid oxidation: 8-hydroxy-2'-deoxyguanosine assay kits (Cayman Chemical®) was used for determining 8- OH-dG levels in the cultures. It is a competitive assay that can be used for the quantification of 8-OHdG in homogenates and recognizes both free 8-OHdG and DNA-incorporated 8-OH-dG. This assay depends on the competition between 8-OH-dG and 8-OH-dGacetylcholinesterase (AChE) conjugate for a limited amount of 8-OH-dG monoclonal antibody (Abdel-Wahab BA, Metwally ME. Ginkgo biloba enhances the anticonvulsant and neuroprotective effects of sodium valproate against kainic acid-induced seizures in mice. J Pharmacol Toxicol. 2011; 6:679-690). All procedures were carried out in accordance with the provider's manual.
The levels of 8-OH-dG, a sensitive marker of oxidative DNA damage, were quantified about mitomycin (MMC) treatment. […] On the contrary, 8-OH-dG levels were not increased in the blood cells that were treated with BLA, MEM, and LA concentrations.

[4] = molecular target: T1, acetylcholinesterase (AChE) (Homo sapiens, UniProt P22303); experiment: AChE activity in cellular model of Alzheimer's disease; assay type: cell-based; conditions: with 20 µM Aβ1-42, 24 h
T1 construct: endogenous in cells
Procedure: Determination of AChE activity: the activity of AChE within the cellular Alzheimer Disease's model was measured by the Acetylcholinesterase Assay Kit (Colorimetric) from Abcam^(R) (Cambridge, MA, USA) according to the manufacturer's recommended protocol.
AChE activity was evaluated in differentiated SH-SY5Y cells treated with BLA, LA, MEM (25 and 50 µM) or media alone for 24 h.

[5] = tested on: SHSY-5Y human neuroblastoma cell line; experiment: Antitumor activity, MTT and LDH assays; assay type: cell-based; conditions: dose-dependent
Procedure: Cytotechnol. 2015; 67:299-309.
Antitumor activity of BLA and MEM was tested on SHSY-5Y human neuroblastoma cell line using MTT and LDH assays. Cells were grown to near-confluency before treatment. Growth of the cell line was inhibited by both drug application in a dose-dependent manner.

[6] = tested on: Staphylococcus aureus ATCC 25923; experiment: Antimicrobial activity; assay type: cell-based; conditions: ATCC25923, S. aureus ATCC 25923
[7] = tested on: Enterococcus faecalis ATCC 29212; experiment: Antimicrobial activity; assay type: cell-based; conditions: ATCC29212, E. faecalis ATCC 29212
[8] = tested on: Escherichia coli ATCC 25922; experiment: Antimicrobial activity; assay type: cell-based; conditions: ATCC25922, E. coli ATCC 25922
[9] = tested on: Pseudomonas aeruginosa ATCC 27853; experiment: Antimicrobial activity; assay type: cell-based; conditions: ATCC27853, P. aeruginosa ATCC 27853
[10] = tested on: Candida albicans ATCC 90028; experiment: Antimicrobial activity; assay type: cell-based; conditions: ATCC90028, C. albicans ATCC 90028
[11] = tested on: peripheral human whole blood (PHWB) cells; experiment: Cytotoxicity assay (MTT and LDH) on blood cells; conditions: 0.1 to 100 µM, 24 h, MTT and LDH assays

T1 sequence (P22303 32-614): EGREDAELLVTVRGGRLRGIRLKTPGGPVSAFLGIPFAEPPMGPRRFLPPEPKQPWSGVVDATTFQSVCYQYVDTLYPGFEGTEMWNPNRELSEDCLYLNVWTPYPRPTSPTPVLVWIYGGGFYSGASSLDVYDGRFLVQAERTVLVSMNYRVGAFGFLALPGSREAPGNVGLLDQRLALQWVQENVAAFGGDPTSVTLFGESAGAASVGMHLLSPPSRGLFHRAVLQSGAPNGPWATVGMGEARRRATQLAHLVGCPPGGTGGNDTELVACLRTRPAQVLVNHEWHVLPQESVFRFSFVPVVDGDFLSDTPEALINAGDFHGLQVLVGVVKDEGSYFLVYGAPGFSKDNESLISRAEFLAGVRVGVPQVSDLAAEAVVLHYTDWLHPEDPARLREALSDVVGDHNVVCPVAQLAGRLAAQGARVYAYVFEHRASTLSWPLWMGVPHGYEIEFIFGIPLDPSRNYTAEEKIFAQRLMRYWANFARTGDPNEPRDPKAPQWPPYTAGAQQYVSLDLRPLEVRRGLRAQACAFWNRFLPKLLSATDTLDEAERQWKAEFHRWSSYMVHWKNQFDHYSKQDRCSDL

SMILES	viability at 25 µM [1] [%]	viability at 50 µM [1] [%]	viability at 100 µM [1] [%]	Aβ1-42-induced decreases of TAC and increases of TOS levels [2]	8-OH-dG levels [3]	reduced Aβ-induced AChE activity ([4]; 25 µM) [%]	reduced Aβ-induced AChE activity ([4]; 50 µM) [%]	antitumor effects (growth inhibition) [5]	MIC [6] [µg/mL]	MIC [7] [µg/mL]	MIC [8] [µg/mL]	MIC [9] [µg/mL]	MIC [10] [µg/mL]	changes in cell viability [11]
O=C(O)CCCCC1CCSS1 (stereo not shown) [LA, 1,2-dithiolane-3-pentanoic acid]	14.8	19	20.7	modulated	not increased									
CC1(C)C2CC3OB(CNC(=O)CCCC[C@H]4CCSS4)O[C@]3(C)C1C2 (stereo partly drawn) [BLA, 5-((S)-1,2-dithiolan-3-yl)-N-(((3aR)-3a,5,5-trimethylhexahydro-4,6-methanobenzo[d][1,3,2]dioxaborol-2-yl)methyl)pentanamide]	25.1	29.9	32.9	modulated	not increased	18.77	22.96	moderate antitumor effects	256 (≈ 644 µM)	256 (≈ 644 µM)	128 (≈ 322 µM)	256 (≈ 644 µM)	128 (≈ 322 µM)	did not show any significant changes in cell viability
